The nature of test [1]: ROS scavenging activity assay (DCFH-DA/esterase, SIN-1). The note with it: SIN–1 10 µM; 5, 10, 20 µM. The method, then: 2.13. ROS Scavenging Activity Assay
The ROS scavenging activities of analogs 1–8 and Troloxwere determined as previously described by Ali et al. and Lebel and Bondy. Briefly, 2.5 mM DCFH-DA (2’,7’-dichlorodihydrofluorescein diacetate) (Molecular Probes, Eugene, OR, USA) solution was mixed with esterase (1.5 units/mL) in 50 mM phosphate buffer (pH 7.4), held for 30 min at 37 °C, and keep on ice in the dark until required. Tested compounds (10 µL; final concentrations: 5, 10, and 20 µM) dissolved in DMSO and SIN-1 (3-morpholinosydnonimine) (10 µM) and 180 µL of phosphate buffer in the wells of a black 96-well plate for 30 min. The 50 µL of DCFH-DA-esterase mixture (20 µM) was added. Fluorescence intensities of oxidized DCFH (DCF or 2′,7′-dichlorofluorescein) were measured using a microplate reader (Berthold Advances GmbH & Co., Bad Wildbad, Germany) with excitation and emission wavelengths of 485 and 530 nm, respectively. Trolox was used as the reference control.
Since it has been reported that reactive oxygen species (ROS) are concerned in the regulation of melanogenesis, we examined the ROS scavenging activities of analogs 1–8 using DCFH-DA (2′,7′-dichlorodihydrofluorescein diacetate) and esterase. Trolox and SIN–1 (3-morpholinosydnonimine) were used as the positive control and a ROS generator, respectively. Hydrolysis of DCFA-DA by esterase generates DCFH (2′,7′-dichlorodihydrofluorescein), which reacts with ROS generated by SIN–1 to produce the fluorescent compound DCF (2′,7′-dichlorofluorescein). Thus, ROS scavenging activities of analogs were assessed by measuring DCF fluorescence. […] Test samples including Trolox were treated at three different concentrations (5, 10, or 20 µM).

A short description of test [2]: ABTS cation radical scavenging activity assay. The note with it: test sample 100 µM, 2 min in the dark. On the procedure: 2.12. ABTS Cation Radical Scavenging Activity Assay
The free radical scavenging activities of analogs 1–8 and Trolox were determined using an ABTS radical cation decolorization assay (SEJIN CI Co., Seoul, Korea), as previously described with minor modification. Trolox was used as the positive control. ABTS radicals were produced by adding 10 mL of 7 mM ABTS in distilled water to 10 mL of 2.45 mM aqueous potassium persulfate solution. The mixture was kept in the dark for 12–16 h at RT until the reaction was complete and absorbance had stabilized. The prepared free radical solution was then diluted with methyl alcohol so that the optical density at 734 nm was 0.70 ± 0.02. Test samples (10 µL, final concentration at 100 µM) dissolved in EtOH/DMSO (9:1 v/v) were added to the diluted free radical solution (90 µL) in a 96-well plate. After standing at RT for 2 min in the dark, well absorbances were measured at 734 nm, and ABTS radical scavenging activities were calculated using the following formula:ABTS free radical scavenging activity (%) = (Ac − As) × 100/Ac(2) where Ac indicates the absorbance of the non-treated control, and As indicates the absorbances of test samples. Experiments were conducted independently 3 times.
The ABTS (2,2′-azino-bis(3-ethylbenzothiazoline-6-sulfonic acid)) cation radical scavenging assay is also commonly used to evaluate antioxidant effects. ABTS is converted to the ABTS radical cation by the transfer of one electron to potassium persulfate. Trolox was used as the positive control, and assays were performed at a test sample (analogs 1–8 and Trolox) concentration of 100 µM. The ABTS radical solution obtained by a reaction of ABTS with potassium persulfate was mixed with test samples and left in the dark for 2 min. ABTS radical scavenging abilities were evaluated by measuring absorbances at 734 nm. […] On the other hand, analog 1 with a 4-hydroxyphenyl group, and analogs 7 and 8 with bromo substituents on the β-phenyl ring weakly scavenged the ABTS radical (16.6–24.8% scavenging). […] Furthermore, the results for ABTS and DPPH radical scavenging activities were similar.

The next test addresses mushroom tyrosinase. Kind of test: Mushroom tyrosinase activity assay (L-tyrosine as substrate). Type of test: biochemical. The note with it: mushroom tyrosinase, means ± SEMs of triplicate determinations. The method, then: 2.2. […] In brief, 20 µL of an aqueous mushroom tyrosinase solution (1000 units/mL) and 170 µL of a substrate mixture containing 345 µM of L-tyrosine and 17.2 mM of sodium phosphate buffer (pH 6.5) were added to wells of a 96-well microplate. […] Amounts of dopachrome produced were assessed by measuring optical densities at 475 nm using a microplate reader (VersaMax®, Molecular Devices, Sunnyvale, CA, USA). […] Experiments were independently conducted three times.

A short description of test [3]: DPPH radical scavenging activity assay. The note with it: test sample 500 µM, DPPH 0.18 mM, 30 min in the dark. On the procedure:
2.11. DPPH Radical Scavenging Activity Assay
The DPPH radical scavenging activities of analogs 1–8 were investigated as previously described with minor modification. L-Ascorbic acid was used as a positive control. In brief, 20 µL of analogs (5 mM) in DMSO or 5 mM L-ascorbic acid in distilled water were mixed with 180 µL of 0.2 mM DPPH in methanol in a 96-well microplate. After the microplate had been stored in the dark for 30 min, optical densities (ODs) were measured at 517 nm using a microplate reader (VersaMax®, Molecular Devices, Sunnyvale, CA, USA). DPPH radical scavenging activities were determined using the following formula:DPPH radical scavenging activity (%) = 100 × (Ac − As)/Ac(1) where Ac indicates the optical density of the non-treated control and As indicates the optical density of test sample. Experiments were conducted independently 3 times.
There is a possibility that compounds with antioxidant properties inhibit the oxidations of tyrosinase substrates, such as L-tyrosine and L-dopa, without interacting with the tyrosinase. Melanin production requires many oxidative processes, including the conversion of L-tyrosine to dopaquinone via L-dopa. Therefore, compounds with antioxidant activity have the potential to inhibit melanogenesis. DPPH (2,2-diphenyl-1-picrylhydrazyl) contains a free radical, and DPPH assays are commonly used to assess antioxidant activity. In this experiment, L-ascorbic acid (an antioxidant) was used as a positive control. The assay was conducted at a test sample and L-ascorbic acid concentration of 500 µM and a DPPH concentration of 0.18 mM. After standing test sample/DPPH mixtures for 30 min in the dark, optical densities were measured to evaluate radical scavenging activities.
(The DPPH test is a chemical assay of radical scavenging.)

Test [4] is described as follows: Peroxynitrite (ONOO−) scavenging activity assay (DHR 123, SIN-1). The following applies: SIN–1 10 µM; 5, 10, 20 µM. On the procedure:
2.14. Peroxynitrite (ONOO^−) Scavenging Activity Assay
Peroxynitrite-scavenging activities were determined as described by Kooy et al. with modification. This method monitors the fluorescence of rhodamine 123, which is formed rapidly when non-fluorescent DHR 123 (dihydrorhodamine 123) (Molecular Probes, Eugene, OR, USA) in the presence of peroxynitrite. The rhodamine buffer solution (pH 7.4) included of 50 mM sodium phosphate, 90 mM sodium chloride, 5 mM potassium chloride, and 100 µM DTPA. The final concentration of DHR 123 was 5 µM. In this assay, the buffer solution was prepared prior to use and then stood on ice. Test compounds (10 µL, final concentrations: 5, 10, and 20 µM) dissolved in DMSO and added to 10 µL SIN-1 (10 µM) and 180 µL rhodamine buffer solution in the wells of a black 96-well plate. Fluorescence intensities of oxidized DHR 123 were measured using a fluorescence plate reader (Berthold Advances GmbH & Co., Bad Wildbad, Germany) with an excitation and emission wavelengths of 485 and 535 nm, respectively. Peroxynitrite scavenging activity was calculated after subtracting background fluorescence from final fluorescence intensity. Results are expressed as means ± standard deviation (SD), and L-penicillamine was used as a positive control.
Several RNS (reactive nitrogen species), including peroxynitrite (ONOO^–) and nitric oxide, are known to be involved in the induction of the melanogenesis. Therefore, we investigated the effects of analogs 1–8 on peroxynitrite scavenging activity using DHR123 (dihydrorhodamine) as a ROS indicator and SIN–1 as an RNS generator. Peroxynitrite generated by SIN–1 oxidizes DHR123 to rhodamine 123, a fluorescent compound. Thus, the effects of analogs on peroxynitrite scavenging ability were determined by measuring rhodamine 123 fluorescence.

In the next test the test system is B16F10 cells. Kind of test: Melanin content analysis in α–MSH plus IBMX stimulated B16F10 cells. Type of test: cell-based, murine. The note with it: α–MSH/IBMX stimulated (3.5-fold), 20 µM, 72 h. The method, then:
2.10. Melanin Content Analysis Melanin content assays were performed to determine the effects of analog 3 on cellular melanin formation, as previously described with minor modification. […] Briefly, cultured B16F10 cells were seeded in 6-well culture plates at 1 × 10^4 cells/well and incubated for 12 h under culture conditions to allow them to adhere to well bottoms. […] Cells were then washed twice with PBS and detached from wells by incubation with Trypsin/EDTA. After centrifugation, detached cell pellets were dissolved in 1N–NaOH solution (100 µL), incubated for 1 h at 60 °C, and mixed to solubilize melanin released by cells. The ability of analog 3 to inhibit melanin production was determined by measuring well optical densities (ODs) at 405 nm using a microplate reader (VersaMax®, Molecular Devices, Sunnyvale, CA, USA). Melanin contents were calculated by dividing the ODs of samples by the control OD. Experiments were conducted independently 3 times. […] Thus, B16F10 cells were treated with analog 3 (0, 5, 10, or 20 µM) for 1 h and then stimulated with α–MSH (1 µM) plus IBMX (200 µM) for 72 h. Melanin contents were assessed by measuring optical densities at 405 nm.

The structures appear in SMILES notation.

Consider `Cc1c(C)c2c(c(C)c1O)CCC(C)(C(=O)O)O2` (stereo not shown) [Trolox, reference compound], for which the ROS scavenging result in test [1] was “significantly and concentration-dependently scavenged ROS”. Besides, the “ABTS radical scavenging activity” value in test [2] was found to be 79.8%.

`O=C1/C(=C/c2ccc(O)cc2)SC(=S)N1C1CCCCC1` [Analog 1, (Z)-3-Cyclohexyl-5-(4-hydroxybenzylidene)-2-thioxothiazolidin-4-one]: the ROS scavenging entry in test [1] is “significantly and concentration-dependently scavenged ROS”. For the same compound, on mushroom tyrosinase, the IC50 (commonly the point on the concentration scale where inhibition reaches its midpoint) stood at 65.4 ± 7.82 µM. Moreover, the “ABTS radical scavenging activity” value in test [2] was 16.6–24.8%.

On to `COc1ccc(/C=C2\SC(=S)N(C3CCCCC3)C2=O)cc1O` [Analog 5, (Z)-3-Cyclohexyl-5-(3-hydroxy-4-methoxybenzylidene)-2-thioxothiazolidin-4-one], for which, on mushroom tyrosinase, half-maximal inhibition (IC50) was put at 55 ± 11.9 µM. For the same compound, the “ABTS radical scavenging activity” value in test [2] is 43.5%.

As to `COc1cc(/C=C2\SC(=S)N(C3CCCCC3)C2=O)ccc1O` [Analog 4, (Z)-3-Cyclohexyl-5-(4-hydroxy-3-methoxybenzylidene)-2-thioxothiazolidin-4-one], the “DPPH radical scavenging activity” value in test [3] stood at 72%. Further, on mushroom tyrosinase, the IC50 was > 200 µM. Besides, the “ABTS radical scavenging activity” value in test [2] turned out to be 57.7%.

Consider `O=C1/C(=C/c2cc(Br)c(O)c(Br)c2)SC(=S)N1C1CCCCC1` [Analog 8, (Z)-3-Cyclohexyl-5-(3,5-dibromo-4-hydroxybenzylidene)-2-thioxothiazolidin-4-one], for which the concentration for half-maximal inhibition (IC50) at mushroom tyrosinase is > 200 µM. Also, the “ABTS radical scavenging activity” value in test [2] is 16.6–24.8%.

In the case of `COc1cc(/C=C2\SC(=S)N(C3CCCCC3)C2=O)cc(OC)c1O` [Analog 6, (Z)-3-Cyclohexyl-5-(4-hydroxy-3,5-dimethoxybenzylidene)-2-thioxothiazolidin-4-one], the “peroxynitrite scavenging compared with penicillamine” value in test [4] was “more potently than penicillamine”. Moreover, the IC50 against mushroom tyrosinase was > 200 µM. Moreover, in test [2], the “ABTS radical scavenging activity” value is on record as 46.9%.

Regarding `CC(C)(S)C(N)C(=O)O` (stereo in doubt) [penicillamine, L-penicillamine, reference compound], the peroxynitrite scavenging entry in test [4] is “significantly and concentration-dependently reduced”.

`O=c1cc(CO)occ1O` [kojic acid, reference compound]: the “melanin contents versus non-treated controls” value in the test on B16F10 cells is given as 3.0 fold.

In turn, `O=C1/C(=C/c2ccc(O)c(Br)c2)SC(=S)N1C1CCCCC1` [Analog 7, (Z)-5-(3-Bromo-4-hydroxybenzylidene)-3-cyclohexyl-2-thioxothiazolidin-4-one] yielded an IC50 against mushroom tyrosinase of 66.2 ± 9.44 µM. Moreover, in test [2], the “ABTS radical scavenging activity” value is 16.6–24.8%.

These data come from publication PMC9598926, “Design and Synthesis of (Z)-5-(Substituted benzylidene)-3-cyclohexyl-2-thioxothiazolidin-4-one Analogues as Anti-Tyrosinase and Antioxidant Compounds: In Vitro and In Silico Insights” (Antioxidants, 2022).
